Experimental data from patent US10001472B2, “3D determination of cell chirality” (Rensselaer Polytechnic Institute, priority 2015, dated 2018).

Test system: Madin-Darby canine kidney (MDCK) epithelial cells
Test: 3D cell chirality (rotation direction) of cells in bilayer MATRIGEL substrate
Format: cell-based
Conditions: MDCK cells in 3D substrate, FIG. 5
Procedure: The cell line used was Madin-Darby canine kidney (MDCK) epithelial cells. The 3D substrate culture system included a base layer was composed of 100% MATRIGEL®. The base layer was seeded with a single cell suspension of MDCK epithelial cells. After cell attachments to the base layer, a top layer was generated by overlaying culture with 2% MATRIGEL®.
Self-organization of the epithelial cells during microtissue development was observed using phase contrast imaging and confocal microscopy. The cells were stained with DAPI (4′,6-diamidino-2-phenylindole), Phalloidin, and ZO-1 antibody.
Time-lapse images were collected for at least 2 hours at intervals of 1 minute over a period of 6 days. Videos were processed in ImageJ and analyzed for quantification of collective rotational direction. Direction of rotation was categorized into clockwise (CW), counterclockwise (CCW), complex rotation, and no rotation. Phase-contrast images of microtissue development from a single cell embedded within the multilayer MATRIGEL® system over time.
Latrunculin A was used to study the role of actin function in left right asymmetry. Latrunculin A is a drug which inhibits actin polymerization. […] These studies are consistent with 2D studies.

With C/C1=C/C(=O)O[C@@H]2C[C@@H](CC[C@H](C)/C=C\C=C\CC1)O[C@@](O)([C@@H]1CSC(=O)N1)C2 [Latrunculin A] the “effect on cell chirality (rotation direction)” value (base layer 100% MATRIGEL, top layer 2% MATRIGEL) was “reversal of chirality” and the “concentration dependence of chirality effect” value (higher concentrations of Latrunculin A) was “increasing clockwise chirality”.
